Assay results reported in ChEMBL document CHEMBL1127283, “Structure of maesaquinone” (Bioorg Med Chem Lett, 1994).
Values after ≈ are worked out from the molar mass of the structure shown.

Assays:
[1] = test system: HeLa; test: Compound was tested for its cytotoxicity against HeLa epithelioid cervix carcinoma cells.; format: functional, cell-based; conditions: Homo sapiens
[2] = test system: BT-20; test: Compound was tested for its cytotoxicity against BT-20 breast carcinoma cells; format: functional, cell-based; conditions: Homo sapiens
[3] = target: T1, Polyunsaturated fatty acid 5-lipoxygenase (Homo sapiens) (UniProt P09917); test: Compound was tested for its inhibitory activity against 5-lipoxygenase
T1 sequence (whole entry): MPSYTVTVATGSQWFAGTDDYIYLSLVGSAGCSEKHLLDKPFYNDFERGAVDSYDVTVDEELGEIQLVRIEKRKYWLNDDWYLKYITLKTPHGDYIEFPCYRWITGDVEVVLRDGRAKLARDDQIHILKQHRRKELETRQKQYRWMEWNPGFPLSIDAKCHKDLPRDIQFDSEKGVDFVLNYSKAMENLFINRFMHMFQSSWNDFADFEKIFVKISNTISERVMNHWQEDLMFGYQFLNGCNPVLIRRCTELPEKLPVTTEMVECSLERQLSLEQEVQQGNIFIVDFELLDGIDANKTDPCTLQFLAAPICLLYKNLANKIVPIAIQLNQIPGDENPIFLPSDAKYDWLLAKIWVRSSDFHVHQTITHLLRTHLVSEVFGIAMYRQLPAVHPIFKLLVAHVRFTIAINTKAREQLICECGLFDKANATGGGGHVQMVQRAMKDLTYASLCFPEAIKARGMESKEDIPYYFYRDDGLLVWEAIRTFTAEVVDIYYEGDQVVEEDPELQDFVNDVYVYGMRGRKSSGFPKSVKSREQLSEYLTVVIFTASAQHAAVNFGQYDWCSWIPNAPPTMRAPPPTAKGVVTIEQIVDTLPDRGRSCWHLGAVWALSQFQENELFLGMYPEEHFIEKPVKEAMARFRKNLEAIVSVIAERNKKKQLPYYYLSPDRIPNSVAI

[4] = test system: HeLa; test: Compound was tested for its cytotoxicity against HeLa epithelioid cervix carcinoma cells; format: functional, cell-based; conditions: Homo sapiens

Compound `CCCC/C=C\CCCCCCCCCC1=C(O)C(OC)=CC(=O)C1=O` has an IC50 [1] of 1.25 µg/mL (≈ 3.45 µM), an IC50 [2] of 1.8 µg/mL (≈ 4.97 µM) and an IC90 [3] of 3000 nM.
For `CCCC/C=C\CCCCCCCCCC1=C(O)C(O)=C(C)C(=O)C1=O`, the IC50 [4] was 2.05 µg/mL (≈ 5.66 µM) and the IC50 [2] was 1.58 µg/mL (≈ 4.36 µM).
